Bounds are passed on as bounds.

For one series, the target named is T1, human mGluR5d (Homo sapiens, UniProt P41594).
T1 construct: expressed in transfected cells; The cells are kept under hygromycin B and Zeocin selection; The separate IP3 assay names GHEK cells stably expressing human mGluR5d
Briefly: FLIPR assay, mobilization of intracellular calcium in cells expressing human mGluR5d. The class given is cell-based. As to conditions: antagonism of agonist response, read-out: FLIPR hmGluR5d. An excerpt: Functional Assessment of mGluR5 Antagonism in Cell Lines Expressing mGluR5D
The properties of the compounds of the invention can be analyzed using standard assays for pharmacological activity. Examples of glutamate receptor assays are well known in the art as described in for example Aramori et al., Neuron 8:757 (1992), Tanabe et al. Neuron 8:169 (1992), Miller et al., J. Neuroscience 15: 6103 (1995), Balazs, et al., J. Neurochemistry 69:151 (1997). The methodology described in these publications is incorporated herein by reference. Conveniently, the compounds of the invention can be studied by means of an assay (FLIPR) that measures the mobilization of intracellular calcium, [Ca^2+]i in cells expressing mGluR5 or another assay (IP3) that measures inositol phosphate turnover.
Cells expressing human mGluR5d as described in WO97/05252 cultured in a mixture of high glucose DMEM with Glutamax (31966-021)(500 mL), 10% dialyzed fetal bovine serum (Hyclone #SH30079.03) (56 mL), 200 μg/mL Hygromycin B (Invitrogen 45-0430, 50 mg/mL) (2.2 mL), 200 μg/mL Zeocin (Invitrogen #R250-01; 100 mg/mL) (1.1 mL) are seeded at a density of 100,000 cells per well on collagen coated clear bottom 96-well plates with black sides and cells were allowed to adhere over night before experiments. All assays are done in a buffer containing 146 mM NaCl, 5 mM KCl, 1 mM MgCl2, 1 mM CaCl2, 20 mM HEPES, 1 mg/mL glucose and 1 mg/mL BSA Fraction IV (pH 7.4). Cell cultures in the 96-well plates are loaded for 60 minutes in the above mentioned buffer containing 6 μM of the acetoxymethyl ester form of the fluorescent calcium indicator fluo-3 (Molecular Probes, Eugene, Oreg.) in 0.025% pluronic acid (a proprietary, non-ionic surfactant polyol—CAS Number 9003-11-6). Following the loading period the fluo-3 buffer is removed and replaced with fresh assay buffer. FLIPR experiments are done using a laser setting of 0.700 W and a 0.4 second CCD camera shutter speed with excitation and emission wavelengths of 488 nm and 562 nm, respectively. Each experiment is initiated with 160 μl of buffer present in each well of the cell plate. A 40 μl addition from the antagonist plate was followed by a 50 μL addition from the agonist plate. A 30 minutes, in dark at 25° C., interval separates the antagonist and agonist additions. The fluorescence signal is sampled 50 times at 1-second intervals followed by 3 samples at 5-second intervals immediately after each of the two additions. Responses are measured as the difference between the peak heights of the response to agonist, less the background fluorescence within the sample period. IC50 determinations are made using a […] least squares fitting program.
In general terms: Calcium flux is commonly read through the fluorescence of an indicator in the cells.

The nature of series [1]: Determination of brain to plasma ratio in rat. Type of series: in vivo. As to conditions: brain and plasma, female Sprague Dawley rats, read-out: Brain/Plasma Ratio of compound in Rat. As to the method: Brain to plasma ratios are estimated in female Sprague Dawley rats. The compound is dissolved in water or another appropriate vehicle. For determination of brain to plasma ratio the compound is administrated as a subcutaneous, or an intravenous bolus injection, or an intravenous infusion, or an oral administration. At a predetermined time point after the administration a blood sample is taken with cardiac puncture. The rat is terminated by cutting the heart open, and the brain is immediately retained. The blood samples are collected in heparinized tubes and centrifuged within 30 minutes, in order to separate the plasma from the blood cells. The plasma is transferred to 96-well plates and stored at −20° C. until analysis. The brains are divided in half, and each half is placed in a pre-tarred tube and stored at −20° C. until analysis. Prior to the analysis, the brain samples are thawed and 3 mL/g brain tissue of distilled water is added to the tubes. The brain samples are sonicated in an ice bath until the samples are homogenized. Both brain and plasma samples are precipitated with acetonitrile. After centrifugation, the supernatant is diluted with 0.2% formic acid. Analysis is performed on a short reversed-phase HPLC column with rapid gradient elution and MSMS detection using a triple quadrupole instrument with electrospray ionisation and Selected Reaction Monitoring (SRM) acquisition. Liquid-liquid extraction may be used as an alternative sample clean-up. The samples are extracted, by shaking, to an organic solvent after addition of a suitable buffer. An aliquot of the organic layer is transferred to a new vial and evaporated to dryness under a stream of nitrogen. After reconstitution of the residuals the samples are ready for injection onto the HPLC column.

T1 sequence (P41594 21-942 isoform P41594-3 limits assumed): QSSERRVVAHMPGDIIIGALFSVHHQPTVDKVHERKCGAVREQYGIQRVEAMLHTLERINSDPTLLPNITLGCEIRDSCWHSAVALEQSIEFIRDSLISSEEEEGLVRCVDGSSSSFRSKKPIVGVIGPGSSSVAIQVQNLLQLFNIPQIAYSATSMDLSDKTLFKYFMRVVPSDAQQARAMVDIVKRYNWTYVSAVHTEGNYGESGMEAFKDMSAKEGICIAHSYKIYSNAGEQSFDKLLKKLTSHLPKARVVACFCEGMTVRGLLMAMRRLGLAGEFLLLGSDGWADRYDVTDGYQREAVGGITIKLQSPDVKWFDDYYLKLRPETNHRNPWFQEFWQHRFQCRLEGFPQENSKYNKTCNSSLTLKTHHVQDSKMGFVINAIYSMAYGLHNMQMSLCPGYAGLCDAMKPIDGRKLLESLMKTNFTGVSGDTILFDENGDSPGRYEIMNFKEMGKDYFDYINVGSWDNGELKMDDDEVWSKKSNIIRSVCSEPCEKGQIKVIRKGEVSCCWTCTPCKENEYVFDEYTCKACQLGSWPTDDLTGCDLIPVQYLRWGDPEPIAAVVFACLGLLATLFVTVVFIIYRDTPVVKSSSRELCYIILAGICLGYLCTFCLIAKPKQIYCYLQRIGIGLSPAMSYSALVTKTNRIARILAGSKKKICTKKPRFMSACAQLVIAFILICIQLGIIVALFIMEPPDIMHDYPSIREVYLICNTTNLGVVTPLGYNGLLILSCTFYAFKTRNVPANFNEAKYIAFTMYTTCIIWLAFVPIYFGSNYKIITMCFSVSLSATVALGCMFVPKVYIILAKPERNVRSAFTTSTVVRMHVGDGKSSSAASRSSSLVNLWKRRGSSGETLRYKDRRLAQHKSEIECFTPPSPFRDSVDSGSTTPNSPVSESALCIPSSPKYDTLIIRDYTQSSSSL

On to `CCn1c(-c2cc(=O)[nH]cn2)nnc1N(C)Cc1cc(-c2cccc(C)c2)on1` [Example 4.7, 6-[4-Ethyl-5-(methyl{[5-(3-methylphenyl)isoxazol-3-yl]methyl}amino)-4H-1,2,4-triazol-3-yl]pyrimidin-4(3H)-one], for which, on human mGluR5d, the IC50 was determined as 53 nM. Moreover, the Kp in series [1] is below 0.015.

Values taken from patent US20090111821A1, “AMINO 1,2,4-TRIAZOLE DERIVATIVES AS MODULATORS OF MGLUR5” (AstraZeneca AB, priority 2007, published 2009).
